From patent US5273992A, “Method for reducing sickle erythrocyte dehydration and delaying the occurrence of erythrocyte sickling in-situ” (Beth Israel Hospital Assoc. Inc., priority 1992, dated 1993)
“And” between values parts separate entries of the source, which are not always exact repeats. Identical values can stand only once. “Also recorded” adds a separate entry of the source. Like-named read-outs stand apart in the source and are kept apart here.

Legend:
[1] = molecular target: T1, Ca^2+-activated K+ channel (Gardos channel) of sickle erythrocytes (Homo sapiens, UniProt O15554); assay: Ca^2+-activated ^86Rb influx in sickle (SS) erythrocytes; format: cell-based
T1 construct: Blood was collected after obtaining informed consent from patients; endogenous in cells; host or cells: erythrocytes (SS) from patients homozygous for Hb S
Protocol: Patients homozygous for Hb S disease were selected. Blood was collected after obtaining informed consent from patients followed in the Hematology Division Clinic at Brigham and Women's Hospital and in the Boston Comprehensive Sickle Cell Center at Boston City Hospital. None of the patients had been transfused in the preceding 120 days.
Other experiments were carried out in normal saline (140 mM NaCl, 2 mM KCl, 10 mM tris-HCl, pH 8.0). At the end of the incubation, triplicate samples of each cell suspension were spun at 3,000 g for 10 min. The supernatant was then removed and a smaller volume of medium containing A23187 (60 μM CaCl2, and ^86 Rb was added to achieve a final Hct of 4-5%. Aliquots of cell suspension were taken at specified times (1, 3, and 5 min) and spun through 0.8 ml of medium with 5 mM EGTA and a 0.4 ml cushion of butyl-phthalate. The resultant supernatant and the upper layer of oil were carefully removed, the tube contents frozen at -80° C. and the tube tip containing the cell pellet cut off and counted.

[2] = system: SS cells (sickle erythrocytes); format: cell-based, human; settings: for Inhibition of dehydration of SS cells (in words): 60 μmol A23187/L cells, 100 μM CaCl2; for Cell K content at end of incubation: SS cells, A23187 + Ca^2+, average of three experiments (control 279±20, Ca^2+ alone 84.9±24)
Protocol: Cells were incubated for 60 min at 37° C. in a medium containing 140 mM NaCl, 4 mM KCl, 100 μM CaCl2, 1 mM K-phosphate buffer, pH 7.40, 10 mM tris-MOPS, pH 7.40, at 1-2% Hct. A23187 was subsequently added to a final concentration of 60 μmol/l cells under stirring. At the specified time intervals, the cell suspension was diluted with an equal amount of medium containing 5 MM EGTA and 0.1% BSA. The red cells were then washed four times with the same medium at 37° C. This procedure allowed for chelation of extracellular Ca^2 + and removal of A23187. An aliquot of cells washed in this medium was used to measure the distributions of cell volume and hemoglobin concentration with the H2-Technicon blood analyzer, while the remaining cells were washed four times with choline washing solution (144 mM Choline Cl, 1 mM MgCl2, 10 mM tris-MOPS, pH 7.40 at 4° C.) for measurements of internal Na and K contents.
291-300; Ohnishi et al., Biochim Biophys. Acta 1010:199-203 (1989): Horruchi et al., Blood 71:46-51 (1988)]. However, the results are highly dependent on the protocol used for deoxygenation and reoxygenation of SS cells. We reasoned that the inhibitory effect of CLT and other antimycotics on the dehydration mediated by the Ca^2 +-activated K+ channel should be assessed under conditions of maximal activation of this pathway. If the inhibitor is effective in blocking dehydration in these conditions, it should be able to block dehydration due to transient activation of the channel as during sickling. Accordingly, cells were exposed to A23187 in the presence of 100 μM CaCl2 in a medium containing 140 mM NaCl, 4 mM KCI, at pH 7.40, with or without the transport inhibitors.
After removal of ionophore and chelation of Ca, cell volume and hemoglobin concentration were measured on a cell per cell basis with the Technicon H-2 blood analyzer. […] Distribution histograms for red cell volume and hemoglobin concentration are presented in the lower panel. Arbitrarily established gates (hemoglobin concentration<28 and >41 g/dL; cell volume<60 and>120 fL) are used to define hypo- and hyperchromic cells and micro- and macrocytic cells, respectively. The distribution in the control SS cells (incubated with A23187 in the presence of 1 mM EGTA) resembles a teardrop, with reticulocytes and cells with low HC and high MCV in the top side of middle and left quadrant, discocytes in the central quadrant, and dehydrated dense cells in the right side of the middle quadrant. SS cells exposed to A 23187 and Ca^2+ were markedly dehydrated, as shown by the shift of the hemoglobin concentration (HC) histogram to higher values and by the increased HC values (FIG. 4). […] Measurements of cell cation content at the end of the incubation support the view that these effects are due to inhibition of K loss. […]

[3] = molecular target: Gardos channel of sickle erythrocytes (Homo sapiens, UniProt O15554); assay: Membrane potential (Em) of SS cells with activated Gardos channel; format: cell-based
Protocol: Measurements of the proton distribution ratio in unbuffered media in the presence of the proton ionophore CCCP allow estimation of the red cell membrane potential (Em). Erythrocytes were washed twice at room temperature with unbuffered medium of the desired composition and added with stirring to 5 ml of the same medium to a final Hct of 5%. All media contained 100 μM ouabain, 10 μM bumetanide, 10 μM DIDS, 10 μM methazolamide and 50 μM CCCP (50 mM stock solution in DMSO. The medium was maintained at 37° C., and pH was recorded for one min prior and 10 min following addition of the red cells. Inhibitors were added to the specified final concentration by appropriate dilution from 10 mM stocks. For internal pH measurements, 20 μl of 10% (v/v) Triton X-100 were added to the cell suspension in unbuffered medium under stirring, and the pH of the resultant lysate measured and assumed to equal pHi. Em was calculated from the equation [formula] [pHi --pHo ], as detailed in Halpern et al, Am. J. Physiol. 257:c986-c996 (1989).
When the Gardos channel is activated, the increased permeability for K+ shifts the membrane potential away from the equilibrium potential for Cl- (ECI) toward the equilibrium potential for K+(EK). This effect is magnified with the Cl-permeability is inhibited by DIDS.

[4] = system: AE1 (band 3) chloride/bichloride exchanger; assay: ^35SO4 influx into AA erythrocytes (AE1 function); format: cell-based, human
Protocol: The protocol used by Schofield et al. [Nature 355:836-838 (1992)] was used to measure ^35 SO2- uptake in AA erythrocytes.
To determine if the inhibition of Ca^2 +-activated ^86 Rb flux was secondary to an inhibitory effect on the membrane Cl-permeability, the effect of the various compounds on the ^35 SO4 influx was assessed. This assay is a measure of function of the major transport system for red cells, the AE1 (band 3) chloride/bichloride exchanger.

[5] = molecular target: T2, Ca^2+-activated K+ channel of SS cells (Homo sapiens, UniProt O15554); assay: Displacement of ^125I-ChTX binding in sickle erythrocytes; settings: for ^125I-ChTX displacement, % of total: 90 min
T2 construct: Blood was collected after obtaining informed consent from patients; endogenous in cells; host or cells: erythrocytes (SS) from patients homozygous for Hb S
Protocol: White cells were removed by passing 0.8 mL of packed red cells through a 5 ml syringe containing a mixture of equal parts of alfa-cellulose and microcrystalline cellulose as originally described by Beutler and West [J. Lab. Clin. Med. 88:328-333 (1976)]. Red cells were washed 3 times in binding medium containing 18 mM NaCl, 2 mM KCl, 10 mM tris-Cl, pH 8.0, 230 mM sucrose and 0.25% bovine serum albumin. A suspension was then made in the same medium at 15% Hct. […] Tubes containing cell suspension were gently rotated for 90 min at room temperature. At the end of the incubation, aliquots of 1 ml were pelleted by microfuge and washed 3 times at 4° C. with a solution containing 200 mM NaCl, 10 mM tris-Cl, pH 8.0. The washed red cell pellet was then lysed in 1 ml of 0.01% Acationox®, and counted in a gamma counter. Aliquots of binding medium were counted prior to addition of cells and at the end of the binding assay.
^125 I-ChTX is a specific ligand of the Ca^2 + activated K+ channel of human red cells. […] To examine the interaction between CLT and the Ca^2 +activated K+ channel of SS cells, the question whether CLT can displace ^125 I-ChTX (50 pM) bound to SS cells was tested.

[6] = molecular target: T1, Ca^2+-activated K+ channel (Gardos channel) of sickle erythrocytes; assay: Ca^2+-activated ^86Rb influx in sickle (SS) erythrocytes; format: cell-based; settings: medium 20 mM salt (low ionic strength); for IC50: Dixon plot analysis, read-out: Inhibition of ^86Rb influx, IC50
[7] = in vivo; cited from earlier work
[8] = system: Ca^2+ activated K+ channel of human red cells; settings: normal red cells; 50 nM cold ChTX; cited from earlier work
[9] = SS erythrocytes, medium 140 mM salt (normal saline)
[10] = SS erythrocytes, medium 20 mM salt
[11] = Inhibition of ^86Rb influx, IC50
[12] = SS erythrocytes, medium 140 mM salt (normal saline), Dixon plot analysis, read-out: Inhibition of ^86Rb influx, IC50
[13] = SS erythrocytes, medium 20 mM salt, read-out: ^125I-ChTX displacement, IC50

Chain of Gardos channel of sickle erythrocytes (O15554 whole entry): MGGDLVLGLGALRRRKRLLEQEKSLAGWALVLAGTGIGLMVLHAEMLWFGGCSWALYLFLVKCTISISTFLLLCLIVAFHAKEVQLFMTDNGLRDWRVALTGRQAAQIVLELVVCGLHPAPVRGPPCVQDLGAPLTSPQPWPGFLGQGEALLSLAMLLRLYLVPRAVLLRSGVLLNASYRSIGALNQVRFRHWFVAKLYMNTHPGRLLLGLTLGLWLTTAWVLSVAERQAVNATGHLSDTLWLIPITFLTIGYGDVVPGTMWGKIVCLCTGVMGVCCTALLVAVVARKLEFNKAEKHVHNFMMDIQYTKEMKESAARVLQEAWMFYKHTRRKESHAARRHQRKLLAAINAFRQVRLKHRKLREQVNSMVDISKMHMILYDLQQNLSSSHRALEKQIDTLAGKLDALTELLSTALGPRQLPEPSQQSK

Molecule: Clc1ccccc1C(c1ccccc1)(c1ccccc1)n1ccnc1 [Clotrimazole, 1-[(2-chlorophenyl)diplenylmethyl]-1H-imidazole]
- Inhibition of Ca^2+-activated ^86Rb influx / K+ transport (in words) [1]: markedly inhibited
- Inhibition of ^86Rb influx, % maximum [1]: 87% and 93%
- Inhibition of dehydration of SS cells (in words) ([2]; 10 μM CLT, 50 nM ChTX, listed as CLT): more pronounced than that by 50 nM ChTX; also recorded: substantially prevented dehydration; also recorded: markedly inhibited the dehydration of sickle cells
- Cell K content at end of incubation ([2]; 10 μM CLT): 210±30 mmol/Kg Hb
- Effect on K+ permeability and membrane potential (Em) ([3]; SS cells, A23187 and 50 μM CaCl2): markedly reduced K+ permeability and shifted Em from EK
- Inhibitory potency on membrane potential changes ([3]; low ionic strength vs normal saline, listed as CLT): higher in low ionic strength conditions than in normal saline
- Influx of the anion SO4 [4]: not affected
- ^125I-ChTX displacement (in words) [5]: displaced ^125 I-ChTX in a dose-dependent manner
- ^125I-ChTX displacement, % of total ([5]; sickle erythrocytes): 74.5%

Molecule: OC(Cn1cncn1)(Cn1cncn1)c1ccc(F)cc1F [Fluconazole]
- Inhibition of ^86Rb influx, % maximum [6]: 0%
- Inhibition of Ca^2+-activated ^86Rb influx / K+ transport (in words) ([1]; SS erythrocytes): non-active
- Inhibition of Ca^2+-activated ^86Rb influx / K+ transport (in words) ([1]; SS erythrocytes, listed as fluconazole): no inhibition
- Inhibition of ^86Rb influx, % maximum [1, 9]: 0%
- ^125I-ChTX displacement, % of total [5, 10]: 19%

Molecule: Cc1ncc([N+](=O)[O-])n1CC(O)CCl (stereo not shown) [Ornidazole]
- Inhibition of ^86Rb influx, % maximum [6]: 11%
- Inhibition of ^86Rb influx at 10 μM (in words) ([1]; SS erythrocytes): only marginally
- Inhibition of ^86Rb influx, % maximum [1, 9]: 21%

Molecule: Clc1ccc(COC(Cn2ccnc2)c2ccc(Cl)cc2Cl)cc1 (stereo not shown) [Econazole, 1-[2-[(4-chlorophenyl)methoxyl]-2-(2,14-dichlorophenyl)ethyl]-1H-imidacole]
- Inhibition of ^86Rb influx, % maximum [1]: 31% and 47%
- IC50 [1, 11]: 270 nM and 575 nM
- IC50 [5]: 205 nM
- ^125I-ChTX displacement, % of total ([5]; sickle erythrocytes): 37%

Molecule: CCS(=O)(=O)CCn1c([N+](=O)[O-])cnc1C [Tinidazole]
- Inhibition of ^86Rb influx, % maximum [6]: 21%
- Inhibition of ^86Rb influx at 10 μM (in words) ([1]; SS erythrocytes): only marginally
- Inhibition of ^86Rb influx, % maximum [1, 9]: 3%

Molecule: Clc1ccc(COC(Cn2ccnc2)c2ccc(Cl)cc2Cl)c(Cl)c1 (stereo not shown) [Miconazole]
- Inhibition of ^86Rb influx, % maximum [1]: 63% and 49%
- IC50 [1, 11]: 110 nM and 100 nM
- Marrow hyoplasia, share of the use cases [7]: 40%
- IC50 [5]: 165 nM
- ^125I-ChTX displacement, % of total ([5]; sickle erythrocytes): 57%

Molecule: CHARYBDOTOXIN
- Inhibition of ^86Rb influx, % maximum [6]: 95.5%
- IC50 [6]: 0.096 nM
- Inhibition of ^86Rb influx, % maximum [1, 9]: 52%
- IC50 [1, 12]: 0.36 nM
- Total binding displaced by excess cold ChTX [8]: 60-70%
- Inhibition of dehydration of SS cells (in words) ([2]; 10 μM CLT, 50 nM ChTX): partially inhibited dehydration
- Cell K content at end of incubation ([2]; 50 nM ChTX): 192.8±39 mmol/Kg Hb
- ^125I-ChTX displacement, % of total [5, 10]: 74.5%
- IC50 [5, 13]: 0.033 nM

Molecule: Cc1ncc([N+](=O)[O-])n1CCO [Metronidazole, 2-methyl-5-nitroimidazole-1-ethanol]
- Inhibition of ^86Rb influx, % maximum [6]: 28%
- IC50 [6]: 850 nM
- Inhibition of Ca^2+-activated ^86Rb influx / K+ transport (in words) ([1]; SS erythrocytes): partially inhibited
- Sequence / rank of inhibitory potency on the Gardos pathway ([1]; SS erythrocytes): clotrimazole>miconazole>econazole>metronidazole
- Inhibition of ^86Rb influx, % maximum [1, 9]: 36%
- IC50 [1, 12]: 440 nM
- ^125I-ChTX displacement, % of total [5, 10]: 49%
- IC50 [5, 13]: 580 nM
